Laboratory results as given in patent US9878021B2, “Compositions and methods for treatment of retinal degenerative diseases” (MOR RESEARCH APPLICATIONS LTD., priority 2013, dated 2018).

How the values were obtained:
Format in all cases: cell-based
[1] = system: p53, phospho-p38 in RPE cells; experiment: Western blot analysis of p53 and phospho-p38
Procedure: Western blot analysis was performed by standard protocols (11), p53, p38, phospho-p38, GADPH, and TAK1; antibodies were obtained from Enco, Israel.

RPE cells [2] = experiment: Conditioned media (SASP) applied on fresh RPE cells, morphology; conditions: applied 72 hours
Procedure: The most significant effect of senescence, is the acquisition of a senescence-associated secretory phenotype (SASP). SASP can convert senescent cells to proinflammatory cells that promote the secretion of chemokines and cytokines that can affect the microenvironment, including in the human retina (16, 17). To examine the role of TAK1 in this process, RPE cells were treated with TAK1 inhibitor or with H2O2, alone or in combination. After 2 weeks, the media was collected from the three separate treatments, centrifuged and the supernatants (conditioned media) were applied on fresh RPE cells for 72 hours.

RPE cells [3] = experiment: RPE cell size quantification (hypertrophy); conditions: TAK1 inhibition combined with oxidative stress, compared to stressed and normal cells
Procedure: N=40 cells for each treatment.
One of the hallmarks of RPE senescence is cellular hypertrophy. RPE cell size is approximately […]; but upon oxidative stress or genetic mutation RPE cells can undergo enlargement.

ARPE-19 cells = experiment: Cell viability / proliferation XTT assay
Procedure: Cell viability assays ARPE-19 cells were seeded in 96-well plates (5000 cells/well) in full medium and were pretreated with the TAK1 inhibitor 5Z-7-oxozeaenol (1 μM) or left untreated for 1 hour. Their viability was then assayed by the XTT assay (cell proliferation kit cat #20-300-1000; Beit Haemek, Israel).
(§1) To determine possible toxicity of anisomycin to RPE cells, RPE cells were treated with anisomycin at different concentration for 5 minute periods. Following treatment, the medium was replaced and fresh medium was added. 72 hours post-treatment, the cells were photographed. […] Their viability was then assayed by the XTT assay.

RPE cells (ARPE-19) [4] = experiment: FACS cell-cycle analysis by DNA content (FL2A)
Procedure: (§2) Double-staining (annexin and propidium iodide (PI)) assay of RPE cells. RPE cells (ARPE-19, available from ATCC) were treated for one hour with the TAK1 inhibitor {5Z-7-oxozeaenol (1 μM)}, following 200 μM H2O2 for one hour or left untreated. The cells were then washed with fresh medium and after 24 hours were trypsinized, stained, and analyzed by FACS. The percentage of cells in each cell-cycle phase (G1/G0, S, and G2/M) was determined by its DNA content (FL2A).

RPE cells [5] = experiment: SA-β-gal (senescence marker) staining
RPE cells (ARPE-19) [6] = experiment: Double-staining (annexin and propidium iodide) FACS assay of RPE cells; conditions: TAK1 inhibitor 1 μM 1 hour prior to H2O2 200 μM; untreated 1.25%, H2O2 alone 31%
Procedure: as §2

RPE cells [7] = experiment: Anisomycin toxicity to RPE cells, cellular morphology; conditions: different concentrations for 5 minute periods, 72 hours post-treatment; low levels
Procedure: as §1

SMILES | p38 phosphorylation ([1]; RPE cells under oxidative stress, pretreated with TAK1 inhibitor 1 μM) | p53 expression levels over a longer period ([1]; TAK1 inhibition, days, compared to untreated cells) | time at which p53 expression peaked ([1]; pretreated cells under oxidative stress, control cells peak after 60 min) [min] | phenotype of fresh RPE cells receiving conditioned medium (RPE cells [2]; medium from cells treated with TAK1 inhibitor alone, 2 weeks) | phenotype of fresh RPE cells receiving conditioned medium (RPE cells [2]; medium from cells treated with both TAK1 inhibitor and H2O2, 2 weeks) | cell size (RPE cells [3]) | proliferation rate (optical density) (ARPE-19 cells; 1 μM pretreatment 1 hour, untreated cells peak on day 4) | G2/M arrest under oxidative stress (RPE cells (ARPE-19) [4]; TAK1 inhibition prior to H2O2 treatment) | percentage of cells at the G0/G1 stage (RPE cells (ARPE-19) [4]; following TAK1 inhibition, of the total number) [%] | number of cells expressing SA-β-gal (RPE cells [5]; TAK1 inhibitor alone, relative to untreated cells) | SA-β-gal expression (RPE cells [5]; pretreatment with TAK1 inhibitor then oxidative stress (H2O2), days 13 and 16) | number of apoptotic cells expressed as a percentage of the total number (RPE cells (ARPE-19) [6]) [%] | toxicity to RPE cells (cellular morphology vs control) (RPE cells [7]) | rate of cell proliferation (ARPE-19 cells; oxidative stress and anisomycin) | number of SA-β-Gal positive cells (RPE cells [5]; H2O2 1 hour, 10 days growth, anisomycin 10 ng/ml 5 min, five more days, vs untreated cells exposed to oxidative stress)
COc1cc(O)c2c(c1)/C=C/C[C@H](O)[C@H](O)C(=O)/C=C\C[C@H](C)OC2=O [5Z-7-oxozeaenol] | inhibition of p38 phosphorylation | reduced p53 expression levels slightly more than the untreated cells | 10 | hypertrophic phenotype similar to that of senescent cells | aberrant morphology similar to that of atrophic RPE cells | further increases cell size | slower proliferation rate that began to decrease after 3 days | reduced | 89 | dramatically increased | strongly increased | 24 | – | – | –
COc1ccc(C[C@H]2NC[C@H](O)[C@H]2OC(C)=O)cc1 [anisomycin, (2R,3S,4S)-4-hydroxy-2-(4-methoxybenzyl)-pyrrolidin-3-yl acetate] | – | – | – | – | – | – | – | – | – | – | – | – | not toxic | did not display reduction | reduces the number of SA-β-Gal positive cells
